{
  "source": "patent US20110224300A1",
  "about": "“USE OF POTASSIUM 2-(a- HYDROXYPENTYL) BENZOATE IN THE MANUFACTURE OF MEDICAMENTS FOR PREVENTING AND/OR TREATING SENILE [sequence]” (Institute of Mataria Medica, Chinese Academy of Me, priority 2008, published 2011)",
  "key": {"ChAT [1]": {"test_system": "ChAT", "test": "ChAT activity of brain tissues from SAMP8 mice", "type": "in vivo", "description": "(§1) The biochemical assays were conducted later (in 24 h) after behavioral testing. Eight rats in each group were anesthetized with ether and sacrificed. The brains were quickly removed and cleaned with ice-cold saline. Then the parietal cortex and hippocampus were isolated. For biochemical analysis, the tissues were weighed and homogenized in ice-cold saline with the proportion of 1:9 (w/v). Homogenization (IKA, Germany) was carried out for 2 min in an ice bath. After the homogenates were centrifuged at 2,000×g for 10 min at 4° C. (Sigma, Germany), the supernatant was used for analytical procedures. The levels of choline acetyltransferase (ChAT) SOD, and MDA activities were determined with commercial colorimetric assay kits (Nanjing Jiancheng Bioengineering Institute, China). The content of protein in the supernatant was determined by Bradford method using BSA as standard.\nSAMP8 were divided into three experimental groups randomly: one vehicle control group, and two dl-PHPB-treated groups (50, and 160 mg/kg). Drugs and vehicle were administered orally to SAMP8 mice for 35 days (one time/each day). The spatial learning and memory abilities of SAMP8 mice were detected by Morris water maze and DTT-2 jumping apparatus in 31-35 days. The testing was commenced at 40 min after drugs treated. The biochemical and pathology assays conducted later (in 24 h) after behavioral testing. […]"}, "MDA [2]": {"test_system": "MDA", "test": "MDA level of brain tissues from permanent 2-VO rats", "type": "in vivo, rat", "conditions": "for MDA level in cortex: 21 days", "description": "(§2) In 10 days after onset of 2-VO, drugs and vehicle were administered orally to rats for 21 days (one time/each day). The spatial learning and memory capability of rats were detected by Morris water maze in the 25-30 days after operation. The Morris water test was commenced at 40 min after drugs treated. The biochemical and pathology assays were conducted later (in 24 h) after behavioral tests.\nas §1"}, "[3]": {"test_system": "cortex and hippocampus neurons of 2-VO rats", "test": "HE staining, neuronal morphology in 2-VO rats", "type": "in vivo, rat", "conditions": "21 days", "description": "Four rats in each group were anesthetized with sodium pentobarbital (100 mg/kg, intraperitoneal injection), and perfused transcardially with cold saline, followed by 300 ml of 4% paraformaldehyde in 0.01 M phosphate buffer (pH 7.4). After these procedures, the brains were removed and stored in the 0.01 M phosphate buffer (pH 7.4) with 4% paraformaldehyde and 30% sucrose at 4° C. until fully equilibrated. Then they were postfixed at 4° C., dehydrated and embedded in paraffin blocks. Coronal sections of 8 μm were stained with hematoxylin-eosin and Klüver-Barrera.\nHE staining in the cytoplasm and nucleus in different colors, you can clearly see the general shape of the cells. […] Above that, dl-PHPB could protect and care the damage of cortex and hippocampus neurons caused by chronic cerebral hypoperfusion."}, "MDA [4]": {"test_system": "MDA", "test": "MDA level of brain tissues from Aβ(25-35)-induced dementia rats", "type": "in vivo, Male Wistar rats", "conditions": "Aβ(25-35) rats, 2 weeks, vehicle 5.43±0.55", "description": "as §1\nRats were divided into four experimental groups randomly (10 rats/each group): one sham-operated group, one vehicle control group, and two dl-PHPB-treated groups (39, and 129 mg/kg). At 1 days after operation, drugs and vehicle were administered orally to rats for 14 days (one time/each day). The spatial learning and memory abilities of rats were detected by Morris water maze in the 9-12 days after operation. The testing of Morris water was commenced at 40 min after drugs treated. […]"}, "ChAT [5]": {"test_system": "ChAT", "test": "ChAT activity of brain tissues from permanent 2-VO rats", "type": "in vivo, rat", "conditions": "for activity of ChAT in hippocampus: 21 days", "description": "as §2, §1"}, "BDNF": {"test_system": "BDNF", "test": "BDNF immunohistochemistry in 2-VO rats", "type": "in vivo, rat", "conditions": "for BDNF expression in hippocampus CA1, CA2, CA3 area: 21 days", "description": "The method for tissue fixation was described above. Serial coronal sections (40 μm) of the brains were cut through the dorsal hippocampus on a freezing microtome and collected in 6-well plates containing 0.01 M PBS. The detection of GFAP and BDNF immunoreactivity was performed using a conventional avidin-biotin-immunoperoxidease technique.\nFor quantitative analysis, one from every five samples in a continuous series of hippocampal or cortical tissue sections was taken, and was processed immunohistochemically. Thus, three slides were taken from each rat, and were read under an objective (×1.6) microscope. The total area of positively stained neurons was counted with Image-pro Plus 5.0 software."}, "SAMP8 mice": {"test_system": "SAMP8 mice", "test": "Water maze test (blind sides) in SAMP8 mice", "type": "in vivo", "description": "(§3) SAMP8 were divided into three experimental groups randomly: one vehicle control group, and two dl-PHPB-treated groups (50, and 160 mg/kg). Drugs and vehicle were administered orally to SAMP8 mice for 35 days (one time/each day). The spatial learning and memory abilities of SAMP8 mice were detected by Morris water maze and DTT-2 jumping apparatus in 31-35 days. The testing was commenced at 40 min after drugs treated. The biochemical and pathology assays conducted later (in 24 h) after behavioral testing.\nThe water maze consisted of square black opaque plastic box (80 cm×50 cm×20 cm), of which four blind-side and a terminal stage. When a black plastic sheet (15 cm×20 cm) was placed in different locations, there were different the starting points and different number of blind side. The water maze filled with water at 25±1° C. to a depth 12 cm. Mice can be placed in different starting point, making experience with different number of blind side to the end. The number of errors into the blind side and the time to reach the end platform (escape latency) was recorded.\nEach mouse was permitted to stay there for 5 s and place in the pool, allowed 3 min to find the end platform. The escape latency (time to reach the platform) was used to assess acquisition of the water maze task. Sessions was repeated for 4 consecutive days."}, "AChE": {"test_system": "AChE", "test": "AChE activity of hippocampus from SAMP8 mice", "type": "in vivo", "conditions": "treatment up to 35 days, tendency only", "description": "as §3\nThe methods as described previously."}},
  "data": [
    {"compound": "CCCCC(O)c1ccccc1C(=O)[O-].[K+]", "note": "(racemic) [dl-PHPB, Potassium 2-(1-Hydroxypentyl)-benzoate]", "values": [
      {"measurement": "ChAT activity in the hippocampus", "setting": "ChAT [1]; 35 days, dose-dependent, P<0.05", "result": "significantly increased ChAT activity"},
      {"measurement": "ChAT activity in the cortex", "setting": "ChAT [1]; cortex, data not shown", "result": "did not significantly improve ChAT activity"},
      {"measurement": "MDA level in cortex", "setting": "MDA [2]; dl-PHPB 13 mg/kg", "result": "decreased MDA level"},
      {"measurement": "MDA level in cortex", "setting": "MDA [2]; dl-PHPB 39 mg/kg", "result": "decreased MDA level"},
      {"measurement": "MDA level in cortex", "setting": "MDA [2]; dl-PHPB 129 mg/kg", "result": "decreased MDA level"},
      {"measurement": "MDA level in hippocampus", "setting": "MDA [2]; hippocampus, doses not given", "result": "no significant effects"},
      {"measurement": "neuronal morphology, HE staining", "setting": "[3]; dl-PHPB 13 mg/kg", "result": "only minor improve the abnormal shape of cortical neurons"},
      {"measurement": "neuronal morphology, HE staining", "setting": "[3]; dl-PHPB 39 mg/kg", "result": "significantly improve the cortex, hippocampus area CA1 and CA3 neurons form"},
      {"measurement": "neuronal morphology, HE staining", "setting": "[3]; dl-PHPB 129 mg/kg", "result": "improve the cortex and hippocampus CA1 area neuronal morphologic abnormalities"},
      {"measurement": "cortex MDA level", "setting": "MDA [4]; 39 mg/kg oral, P<0.05", "result": "3.62±0.21", "unit": "nmol/mg protein"},
      {"measurement": "cortex MDA level", "setting": "MDA [4]; 129 mg/kg oral, P<0.01", "result": "3.28±0.25", "unit": "nmol/mg protein"},
      {"measurement": "ChAT activity in cortex", "setting": "ChAT [5]; cortex, data not shown", "result": "had no effect"},
      {"measurement": "activity of ChAT in hippocampus", "setting": "ChAT [5]; dl-PHPB 13 mg/kg", "result": "did not show significant effects"},
      {"measurement": "activity of ChAT in hippocampus", "setting": "ChAT [5]; dl-PHPB 39 mg/kg", "result": "did not show significant effects"},
      {"measurement": "activity of ChAT in hippocampus", "setting": "ChAT [5]; dl-PHPB 129 mg/kg, P<0.05", "result": "significantly increased the activity of ChAT"},
      {"measurement": "BDNF expression in hippocampus CA1, CA2, CA3 area", "setting": "BDNF; dl-PHPB 39 mg/kg, P<0.05 or P<0.01", "result": "significantly increased BDNF expression"},
      {"measurement": "BDNF expression in hippocampus CA1, CA2, CA3 area", "setting": "BDNF; dl-PHPB 129 mg/kg", "result": "only a trend without statistical significance"},
      {"measurement": "expression of BDNF in the cortex (staining intensity)", "setting": "BDNF; strongest at 39 mg/kg, succeeded by 129 mg/kg and 13 mg/kg", "result": "increase the expression of BDNF"},
      {"measurement": "number of errors into the blind-side", "setting": "SAMP8 mice; 50 mg/kg oral, fifth test, vehicle 6.1±1.1, P<0.05", "result": "3.1±0.9"},
      {"measurement": "escape latency time", "setting": "SAMP8 mice; 50 mg/kg, last test, P<0.01 vs vehicle", "result": "significantly shorten the escape latency time"},
      {"measurement": "number of errors into the blind-side", "setting": "SAMP8 mice; 160 mg/kg oral, fifth test, vehicle 6.1±1.1, P<0.05", "result": "2.7±0.3"},
      {"measurement": "escape latency time", "setting": "SAMP8 mice; 160 mg/kg, fourth training, P<0.05", "result": "significantly shortened the escape latency time"},
      {"measurement": "escape latency time", "setting": "SAMP8 mice; 160 mg/kg, last test, P<0.01 vs vehicle", "result": "significantly shorten the escape latency time"},
      {"measurement": "escape latency time", "setting": "SAMP8 mice; first and second trainings, each group", "result": "no significant difference"},
      {"measurement": "number of errors into the blind-side", "setting": "SAMP8 mice; first three trainings, vs vehicle", "result": "no significant difference"},
      {"measurement": "number of errors into the blind-side", "setting": "SAMP8 mice; fourth training, vs vehicle, dose not specified", "result": "significantly decreased the number of errors"},
      {"measurement": "escape latency time", "setting": "SAMP8 mice; third training", "result": "tendency of the shorter escape latency"},
      {"measurement": "AChE activity in the hippocampus", "setting": "AChE", "result": "might decrease AChE activity"}
    ]}
  ]
}
